Active and inactive are the calls of the source. The calls are words filed in the database; no cut-off is given here. Where a SMILES comes first, the peptide text is derived from it. Bridges are numbered along the chain shown (N, C = ends).
Assays:
[1] = system: A549; experiment: Antiinvasive activity against human A549 cells assessed as inhibition of cell invasion at 50 uM after 24 hrs by crystal violet staining based transwell assay relative to control; assay type: functional; conditions: A549, 24 h
[2] = system: A549; experiment: Effect on p38 expression in human A549 cells up to 50 uM after 24 hrs by Western blot analysis; assay type: functional, cell-based
[3] = system: A549; experiment: Effect on MMP9 expression in human A549 cells up to 50 uM after 24 hrs by Western blot analysis; assay type: functional, cell-based
[4] = system: A549; experiment: Antimigratory activity against human A549 cells assessed as reduction in cell motility measured at 15 mins interval for 12 hrs by Holomonitor M4 time-lapse cytometric method; assay type: functional, cell-based
[5] = biological target: Focal adhesion kinase 1 (Homo sapiens) (UniProt Q05397); experiment: Effect on FAK phosphorylation in human A549 cells up to 50 uM after 24 hrs by Western blot analysis; assay type: cell-based
Focal adhesion kinase 1 (Homo sapiens), sequence (Q05397 2-1052 limits assumed): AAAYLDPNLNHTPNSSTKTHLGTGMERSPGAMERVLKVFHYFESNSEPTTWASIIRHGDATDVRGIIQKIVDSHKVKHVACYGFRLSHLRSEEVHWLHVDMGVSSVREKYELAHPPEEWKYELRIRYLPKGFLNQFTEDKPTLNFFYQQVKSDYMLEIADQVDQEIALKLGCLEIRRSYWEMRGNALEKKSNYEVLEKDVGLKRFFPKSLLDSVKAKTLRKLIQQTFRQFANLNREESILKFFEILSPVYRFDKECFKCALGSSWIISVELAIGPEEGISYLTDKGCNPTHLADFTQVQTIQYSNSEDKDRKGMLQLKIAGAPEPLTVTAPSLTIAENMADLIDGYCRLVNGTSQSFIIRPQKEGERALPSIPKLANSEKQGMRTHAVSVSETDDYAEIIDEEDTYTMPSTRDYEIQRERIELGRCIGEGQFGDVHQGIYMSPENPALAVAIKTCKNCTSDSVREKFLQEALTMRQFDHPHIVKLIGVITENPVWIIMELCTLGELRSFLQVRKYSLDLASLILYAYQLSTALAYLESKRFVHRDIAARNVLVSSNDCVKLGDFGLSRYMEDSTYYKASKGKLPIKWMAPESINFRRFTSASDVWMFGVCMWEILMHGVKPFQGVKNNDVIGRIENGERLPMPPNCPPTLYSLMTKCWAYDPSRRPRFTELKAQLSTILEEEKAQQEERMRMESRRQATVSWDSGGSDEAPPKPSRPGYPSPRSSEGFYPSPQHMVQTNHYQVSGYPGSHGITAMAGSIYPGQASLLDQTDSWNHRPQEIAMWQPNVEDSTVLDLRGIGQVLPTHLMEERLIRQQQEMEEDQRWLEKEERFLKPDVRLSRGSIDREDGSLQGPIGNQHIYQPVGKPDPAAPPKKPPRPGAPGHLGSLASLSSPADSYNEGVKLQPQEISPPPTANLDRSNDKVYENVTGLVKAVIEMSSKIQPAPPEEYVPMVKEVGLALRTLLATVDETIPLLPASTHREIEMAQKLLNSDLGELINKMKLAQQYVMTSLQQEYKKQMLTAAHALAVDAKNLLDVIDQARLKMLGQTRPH

[6] = system: A549; experiment: Effect on paxillin expression in human A549 cells up to 50 uM after 24 hrs by Western blot analysis; assay type: functional, cell-based
[7] = system: A549; experiment: Effect on MMP2 expression in human A549 cells up to 50 uM after 24 hrs by Western blot analysis; assay type: functional, cell-based
[8] = biological target: Paxillin (Homo sapiens) (UniProt P49023); experiment: Effect on paxillin phosphorylation in human A549 cells up to 50 uM after 24 hrs by Western blot analysis; assay type: cell-based
Paxillin (Homo sapiens), sequence (P49023 whole entry): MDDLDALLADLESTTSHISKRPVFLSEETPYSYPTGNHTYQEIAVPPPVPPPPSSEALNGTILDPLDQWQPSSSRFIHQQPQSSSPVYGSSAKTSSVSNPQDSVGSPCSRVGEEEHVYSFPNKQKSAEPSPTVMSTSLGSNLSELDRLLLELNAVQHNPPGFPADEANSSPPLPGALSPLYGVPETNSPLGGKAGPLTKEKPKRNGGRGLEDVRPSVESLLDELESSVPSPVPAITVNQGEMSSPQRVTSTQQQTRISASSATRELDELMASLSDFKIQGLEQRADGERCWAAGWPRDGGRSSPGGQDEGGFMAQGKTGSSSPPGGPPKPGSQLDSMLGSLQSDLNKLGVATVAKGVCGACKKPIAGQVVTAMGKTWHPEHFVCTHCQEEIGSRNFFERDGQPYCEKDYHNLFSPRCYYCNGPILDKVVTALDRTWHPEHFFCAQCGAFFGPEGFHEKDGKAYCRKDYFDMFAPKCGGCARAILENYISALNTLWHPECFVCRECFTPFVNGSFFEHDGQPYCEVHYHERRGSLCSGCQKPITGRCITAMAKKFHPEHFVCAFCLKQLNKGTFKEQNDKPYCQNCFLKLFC

[9] = system: A549; experiment: Cytotoxicity against human A549 cells assessed as effect on cell viability up to 100 uM after 24 hrs by EZ-Cytox cell viability assay; assay type: cell-based; conditions: a549, 24 h
[10] = system: A549; experiment: Effect on ERK phosphorylation in human A549 cells up to 50 uM after 24 hrs by Western blot analysis; assay type: cell-based
[11] = system: A549; experiment: Effect on FAK expression in human A549 cells up to 50 uM after 24 hrs by Western blot analysis; assay type: functional, cell-based
[12] = biological target: MAP kinase p38 (Homo sapiens) (UniProt O15264+Q15759+Q16539+P53778); experiment: Effect on p38 phosphorylation in human A549 cells up to 50 uM after 24 hrs by Western blot analysis; assay type: cell-based
[13] = biological target: 72 kDa type IV collagenase (Homo sapiens) (UniProt P08253); experiment: Effect on MMP2 phosphorylation in human A549 cells up to 50 uM after 24 hrs by Western blot analysis; assay type: cell-based
72 kDa type IV collagenase (Homo sapiens), sequence (P08253 110-660 limits assumed): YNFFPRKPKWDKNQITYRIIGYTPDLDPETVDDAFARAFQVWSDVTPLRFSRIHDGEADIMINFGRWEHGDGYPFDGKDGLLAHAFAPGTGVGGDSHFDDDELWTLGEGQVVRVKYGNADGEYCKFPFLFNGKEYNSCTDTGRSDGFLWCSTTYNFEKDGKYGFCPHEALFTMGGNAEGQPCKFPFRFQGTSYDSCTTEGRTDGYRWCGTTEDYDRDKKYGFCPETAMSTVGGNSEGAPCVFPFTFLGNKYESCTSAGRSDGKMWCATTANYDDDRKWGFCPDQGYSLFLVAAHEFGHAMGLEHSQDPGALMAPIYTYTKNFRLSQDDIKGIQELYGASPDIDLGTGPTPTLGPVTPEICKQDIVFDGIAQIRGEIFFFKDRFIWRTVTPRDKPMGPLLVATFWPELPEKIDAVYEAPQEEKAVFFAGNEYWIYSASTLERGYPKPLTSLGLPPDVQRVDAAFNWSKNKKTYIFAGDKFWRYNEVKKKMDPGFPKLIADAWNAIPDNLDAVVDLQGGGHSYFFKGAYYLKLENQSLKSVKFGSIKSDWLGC

[14] = system: A549; experiment: Effect on JNK expression in human A549 cells up to 50 uM after 24 hrs by Western blot analysis; assay type: functional, cell-based
[15] = biological target: Matrix metalloproteinase-9 (Homo sapiens) (UniProt P14780); experiment: Effect on MMP9 phosphorylation in human A549 cells up to 50 uM after 24 hrs by Western blot analysis; assay type: cell-based
Matrix metalloproteinase-9 (Homo sapiens), sequence (P14780 whole entry): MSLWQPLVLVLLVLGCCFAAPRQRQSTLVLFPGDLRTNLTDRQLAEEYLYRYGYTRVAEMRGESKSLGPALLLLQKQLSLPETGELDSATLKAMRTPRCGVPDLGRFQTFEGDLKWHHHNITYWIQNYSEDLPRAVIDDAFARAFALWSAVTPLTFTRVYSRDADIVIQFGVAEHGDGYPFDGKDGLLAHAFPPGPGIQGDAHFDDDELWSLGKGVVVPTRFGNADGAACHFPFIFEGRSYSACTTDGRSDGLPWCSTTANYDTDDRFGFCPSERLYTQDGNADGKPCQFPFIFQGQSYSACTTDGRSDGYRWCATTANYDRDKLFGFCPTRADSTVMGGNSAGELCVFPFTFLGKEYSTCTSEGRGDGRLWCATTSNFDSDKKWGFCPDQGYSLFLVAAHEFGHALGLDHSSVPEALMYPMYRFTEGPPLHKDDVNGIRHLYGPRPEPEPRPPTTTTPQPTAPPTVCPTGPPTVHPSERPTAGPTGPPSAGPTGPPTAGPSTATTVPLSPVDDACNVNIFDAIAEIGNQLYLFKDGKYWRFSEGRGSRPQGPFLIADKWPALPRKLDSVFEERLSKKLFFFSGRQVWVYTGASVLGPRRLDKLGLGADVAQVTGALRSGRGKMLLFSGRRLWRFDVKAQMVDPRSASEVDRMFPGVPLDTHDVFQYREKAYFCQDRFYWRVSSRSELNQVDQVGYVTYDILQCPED

[16] = system: A549; experiment: Antimigratory activity against human A549 cells assessed as reduction in cell migration measured at 15 mins interval for 12 hrs by Holomonitor M4 time-lapse cytometric method; assay type: functional, cell-based
[17] = system: A549; experiment: Effect on ERK expression in human A549 cells up to 50 uM after 24 hrs by Western blot analysis; assay type: functional, cell-based
[18] = biological target: c-Jun N-terminal kinase, JNK (Homo sapiens) (UniProt P45983+P53779+P45984); experiment: Effect on JNK phosphorylation in human A549 cells up to 50 uM after 24 hrs by Western blot analysis; assay type: cell-based

CC(C)C[C@H](NC(=O)CNC(=O)[C@H](Cc1ccccc1)NC(=O)[C@H](CO)NC(=O)[C@@H]1CC(=O)NCC(=O)N[C@@H](Cc2ccccc2)C(=O)NCC(=O)N[C@@H](CO)C(=O)N[C@@H](CCCCN)C(=O)N2CCC[C@H]2C(=O)N[C@@H](CC(C)C)C(=O)N1)C(=O)N[C@@H](CC(N)=O)C(=O)N[C@@H](Cc1ccccc1)C(=O)N[C@@H](Cc1ccccc1)C(=O)O (GFGSKPLDSFGLNFF-OH; lactam N-8) was tested, and the inhibition at 50 µM [1] was 56%.
CC[C@H](C)[C@@H]1NC(=O)[C@H](Cc2ccccc2)NC(=O)CNC(=O)C[C@@H](C(=O)N[C@H](C(=O)N[C@@H](Cc2ccccc2)C(=O)NCC(=O)N[C@@H](Cc2cnc[nH]2)C(=O)N[C@@H](Cc2ccc(O)cc2)C(=O)NCC(=O)NCC(=O)O)[C@@H](C)CC)NC(=O)[C@H](CCCCN)NC(=O)CNC(=O)[C@H](Cc2c[nH]c3ccccc23)NC(=O)CNC1=O (GFIGWGKDIFGHYGG-OH; lactam N-8) was tested, and the inhibition at 50 µM [1] was 48.4%, the Activity [2] was “inactive” and the Activity [3] was “inactive”. The Activity [4] was “Dose-dependent effect”, the Activity [5] was “inactive” and the Activity [6] was “inactive”. The Activity [7] was “inactive”, the Activity [8] was “inactive” and the Activity [9] was “Non-Toxic”. For the same compound, the Activity [10] was “inactive”, the Activity [11] was “inactive” and the Activity [12] was “inactive”. For the same compound, the Activity [13] was “inactive”, the Activity [14] was “inactive” and the Activity [15] was “inactive”. The Activity [16] was “Dose-dependent effect”, the Activity [17] was “inactive” and the Activity [18] was “inactive”.
CC[C@H](C)[C@@H]1NC(=O)[C@@H]2CCCN2C(=O)[C@H](CCCCN)NC(=O)[C@H](CO)NC(=O)CNC(=O)[C@H](Cc2ccccc2)NC(=O)CNC(=O)C[C@@H](C(=O)N[C@@H](CO)C(=O)N[C@@H](Cc2ccccc2)C(=O)NCC(=O)N[C@@H](CC(C)C)C(=O)N[C@@H](CO)C(=O)N[C@@H](Cc2c[nH]c3ccccc23)C(=O)N[C@@H](CC(C)C)C(=O)O)NC1=O [SUNGSANPIN] (GFGSKPIDSFGLSWL-OH; lactam N-8) gave an inhibition at 50 µM [1] of 53%.
